{"source": "patent US11693017B2", "about": "“Small molecule biosensors” (President and Fellows of Harvard College, priority 2015, dated 2023)", "key": {"[1]": {"test_system": "G-DIG1-V-Matα2 biosensor with pUAS::Luc in transgenic Arabidopsis plants", "experiment": "TF-biosensor assays in transgenic Arabidopsis plants", "assay_type": "in vivo, Arabidopsis thaliana", "description": "Transgenic plants expressing the digoxin biosensor genetic circuit were tested for digoxigenin-induced luciferase expression by placing 14-16 day old plants in liquid MS (-sucrose) media supplemented with 0.1 mM digoxigenin in 24-well plates, and incubated in a growth chamber at 24° C., […] light.\nLuciferase expression was measured by imaging plants with a Stanford Photonics XR/MEGA-10 ICCD Camera, after spraying luciferin and dark adapting plants for 30 minutes. Luciferase expression was quantified using Piper Control (v.2.6.17) software. Plants from line KJM58-10 were used to test for specificity of induction by incubating plants, as described above, in 0.1 mM digoxigenin, 0.1 mM digitoxigenin, and 0.02 mM β-estradiol. All chemicals were obtained from Sigma-Aldrich (St. Louis, Mo.)."}, "[2]": {"test_system": "LexA-based TF-biosensors with DIG1 and B42", "experiment": "Luciferase reporter assay in yeast with LexA-based TF-biosensor", "assay_type": "cell-based, Saccharomyces cerevisiae", "details": "reporter promoter containing LexA-binding sites", "description": "Yeast strains containing either a plasmid-borne or integrated luciferase reporter were transformed with p16C plasmids encoding TF-biosensors. Transformants were grown in triplicate overnight at 30° C. in SD-ura media containing 2% glucose in sterile glass test tubes on a roller drum. After ˜16 hours of growth, OD600 of each sample was measured and cultures were back diluted to OD600=0.2 in fresh SD-ura media containing steroid dissolved in DMSO or a DMSO control (1% DMSO final). Cultures were grown at 30° C. on roller drum for 8 hrs prior to taking readings. Measurement of luciferase activity was adapted from a previously reported protocol^58. 100 uL of each culture was transferred to a 96-well white NUNC plate. 100 uL of 2 mM D-luciferin in 0.1 M sodium citrate (pH 4.5) was added to each well of the plate and luminescence was measured on a Victor 3V after 5 minutes."}, "DIG10.3 (DIG0)": {"target": "DIG10.3 (DIG0)", "details": "cited from earlier work"}, "[3]": {"test_system": "degron-G-PRO1-V in HIS3 reporter strain PJ69-4a", "experiment": "Yeast spotting (HIS3 growth) assay", "assay_type": "cell-based, Saccharomyces cerevisiae", "details": "-his media", "description": "Yeast strain PJ69-4a transformed with p16C plasmids containing degron G-DIG-V variants were first inoculated from colonies into SD-ura media and grown at 30° C. overnight (16 h). 1 mL of each culture was pelleted by centrifugation (3000 rcf, 2 min), resuspended in 1 mL of fresh SD-ura and the OD660 was measured. Each culture was then diluted in SD-ura media to an OD660=0.2 and incubated at 30° C. for 4-6 hrs. 1 mL of each culture was pelleted and resuspended in sterile, distilled water and the OD660 measured again. Each transformant was then diluted to an OD660=0.1. Four 1/10 serial dilutions of each culture were prepared in sterile water (for a total of 5 solutions). 10 μL of each dilution was spotted in series onto several SD-ura-his agar plates containing 1 mM 3-aminotriazole and the indicated steroid."}, "PRO0": {"target": "PRO0", "details": "cited from earlier work"}, "[4]": {"test_system": "DIG-Cas9 fusion in K562 cell line containing a broken EGFP", "experiment": "TF-biosensor-Cas9 assay (EGFP repair)", "assay_type": "cell-based, human", "details": "48-hour incubation", "description": "Construct integration was carried out as for the Cas9 experiments for EGFP assays, except that the constructs were integrated into K562 containing a broken EGFP reporter construct. Introduction of an engineered nuclease along with a donor oligonucleotide can correct the EGFP and produce fluorescent cells. Upon successful integration (˜10 days after initial transfection), 500,000 cells were nucleofected with 500 ng of guide RNA (sgRNA) and 2 μg of donor oligonucleotide. Nucleofected cells were then collected with 200 μL of media and 50 μL aliquots were added to wells containing 950 μL of media. Each nucleofection was split into four separate wells containing 1 μM of digoxigenin, 25 μM of progesterone, or no small molecule. Forty-eight hours later, cells were analyzed using flow cytometry and the percentage of EGFP positive cells was determined."}}, "data": [{"smiles": "C[C@H]1O[C@@H](O[C@H]2[C@@H](O)C[C@H](O[C@H]3[C@@H](O)C[C@H](O[C@H]4CC[C@@]5(C)[C@H](CC[C@@H]6[C@@H]5C[C@@H](O)[C@]5(C)[C@@H](C7=CC(=O)OC7)CC[C@]65O)C4)O[C@@H]3C)O[C@@H]2C)C[C@H](O)[C@@H]1O", "note": "[digoxin]", "values": [{"measurement": "induction of the biosensor", "setting": "[1]; transgenic Arabidopsis plants", "result": "capable of inducing"}, {"measurement": "activation in the presence of digoxin", "setting": "[2]", "result": "~40", "unit": "fold"}, {"measurement": "affinity of binding to DIG10.3 (DIG0)", "setting": "DIG10.3 (DIG0)", "result": "picomolar"}]}, {"smiles": "CC(=O)[C@H]1CC[C@H]2[C@@H]3CC=C4C[C@@H](O)CC[C@]4(C)[C@H]3CC[C@]12C", "note": "[pregnenolone]", "values": [{"measurement": "growth of histidine auxotrophic reporter strain", "setting": "[3]", "result": "not"}]}, {"smiles": "CC(=O)[C@H]1CC[C@H]2[C@@H]3CCC4=CC(=O)CC[C@]4(C)[C@H]3CC[C@]12C", "note": "[progesterone]", "values": [{"measurement": "affinity of binding to PRO0", "setting": "PRO0", "result": "nanomolar"}, {"measurement": "growth of histidine auxotrophic reporter strain", "setting": "[3]", "result": "stimulated"}]}, {"smiles": "C[C@]12CC[C@H](O)C[C@H]1CC[C@@H]1[C@@H]2C[C@@H](O)[C@]2(C)[C@@H](C3=CC(=O)OC3)CC[C@]12O", "note": "[digoxigenin]", "values": [{"measurement": "increase in GFP positive cells relative to the mock control", "setting": "[4]", "result": "~18", "unit": "fold"}, {"measurement": "induction of luciferase activity compared to the uninduced control", "setting": "[1]; after 42 hours, T1 transgenic plants", "result": "30-50 fold"}]}]}
